The text below walks through data of patent US10752624B2, “Kinase inhibitors” (Origenis GmbH, priority 2012, dated 2020).

LRRK2, sequence (Q5S007 970-2527 limits assumed): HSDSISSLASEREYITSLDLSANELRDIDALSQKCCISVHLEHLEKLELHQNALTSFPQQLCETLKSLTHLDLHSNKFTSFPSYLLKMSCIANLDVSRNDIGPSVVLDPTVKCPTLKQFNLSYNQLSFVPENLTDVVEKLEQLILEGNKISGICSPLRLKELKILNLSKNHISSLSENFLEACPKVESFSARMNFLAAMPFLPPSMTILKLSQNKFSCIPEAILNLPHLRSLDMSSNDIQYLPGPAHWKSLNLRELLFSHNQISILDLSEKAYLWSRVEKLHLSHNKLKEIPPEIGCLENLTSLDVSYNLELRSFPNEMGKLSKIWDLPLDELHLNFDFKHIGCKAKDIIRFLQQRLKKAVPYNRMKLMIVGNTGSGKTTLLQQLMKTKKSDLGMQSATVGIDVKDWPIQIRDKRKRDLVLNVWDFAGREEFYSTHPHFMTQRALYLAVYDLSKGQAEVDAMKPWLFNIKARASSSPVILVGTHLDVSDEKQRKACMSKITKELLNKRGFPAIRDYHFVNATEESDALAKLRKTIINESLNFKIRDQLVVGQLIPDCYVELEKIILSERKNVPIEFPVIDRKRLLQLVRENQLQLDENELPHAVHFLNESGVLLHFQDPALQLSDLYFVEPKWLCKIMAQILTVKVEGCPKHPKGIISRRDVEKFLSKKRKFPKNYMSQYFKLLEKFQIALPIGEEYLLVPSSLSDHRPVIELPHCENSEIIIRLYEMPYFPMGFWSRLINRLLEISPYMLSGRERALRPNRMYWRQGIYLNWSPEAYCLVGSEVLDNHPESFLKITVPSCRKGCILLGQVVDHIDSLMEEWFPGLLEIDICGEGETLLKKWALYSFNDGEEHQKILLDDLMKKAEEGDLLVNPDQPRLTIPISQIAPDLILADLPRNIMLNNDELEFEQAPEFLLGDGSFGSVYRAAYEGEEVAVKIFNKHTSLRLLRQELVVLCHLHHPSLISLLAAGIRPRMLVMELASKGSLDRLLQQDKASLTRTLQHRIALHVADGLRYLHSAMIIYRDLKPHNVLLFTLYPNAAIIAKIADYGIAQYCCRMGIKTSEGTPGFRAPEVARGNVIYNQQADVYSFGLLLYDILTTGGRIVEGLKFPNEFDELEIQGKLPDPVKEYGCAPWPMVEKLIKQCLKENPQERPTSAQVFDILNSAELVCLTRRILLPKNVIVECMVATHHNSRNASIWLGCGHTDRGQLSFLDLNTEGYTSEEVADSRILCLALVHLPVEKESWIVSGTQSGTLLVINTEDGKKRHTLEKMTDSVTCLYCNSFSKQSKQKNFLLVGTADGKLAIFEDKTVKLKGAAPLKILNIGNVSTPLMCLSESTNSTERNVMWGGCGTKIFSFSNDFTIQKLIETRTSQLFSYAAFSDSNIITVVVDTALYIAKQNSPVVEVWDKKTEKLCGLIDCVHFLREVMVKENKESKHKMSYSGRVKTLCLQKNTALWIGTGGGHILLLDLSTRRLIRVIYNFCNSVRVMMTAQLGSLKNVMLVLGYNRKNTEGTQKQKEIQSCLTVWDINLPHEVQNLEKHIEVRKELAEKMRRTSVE

This test has as its target LRRK2 (Homo sapiens, UniProt Q5S007). In words: LRRK2-LRRK2 G2019S-Assay (LanthaScreen Eu Kinase Binding Assay). The conditions noted are these: 5 nM LRRK2, 10 nM tracer 236, 2 nM EU-Anti-GST antibody, 1 h at RT; read-out: LRRK2 Activities: IC50. Here is the method:
In the assay LanthaScreen™ Eu Kinase Binding Assay by Invitrogen Corporation (Carlsbad) the effect of invention of a compound on the phosphorylation is determined by measurement of fluorescence intensity emission ratio based on the binding and displacement of a proprietary, Alexa Fluor® 647-labeled, ATP-competitive kinase inhibitor scaffold (kinase tracer) to the kinase of interest. Binding of the tracer to the kinase is detected using a europium-labeled anti-tag antibody, which binds to the kinase of interest. Simultaneous binding of both the tracer and antibody to the kinase results in a high degree of FRET (fluorescence resonance energy transfer) from the europium (Eu) donor fluorophore to the Alexa Fluor® 647 acceptor fluorophore on the kinase tracer. Binding of an inhibitor to the kinase competes for binding with the tracer, resulting in a loss of FRET. The fluorescence intensity ratio is directly proportional to the amount of peptide phosphorylation.
To the wells of an 384 well small volume plate (Greiner, Frickenhausen) are added (i) the compound under test in 5% DMSO/distilled water (5 μl), (ii) 5 μl of the kinase antibody mixture resulting in a final concentration 5 nM LRRK2 or their mutants, 2 nM EU-Anti-GST antibody in 1× kinase buffer A. The reaction was started with addition of (iii) 5 μl resulting in a final concentration of 10 nM tracer 236. The assay plate was incubated at RT for 1 h and fluorescence intensity readings were collected using a TECAN M1000 at two wavelengths of λex 340/λem 615 nm and λex 340/λem 665 nm with a delay time of 100 μs and an integration time of 200 μs after 60 minutes. The emission ratio was calculated by division of the acceptor/tracer emission ([…]) by the antibody/donor emission ([…]). The inhibitor concentration was plotted versus the emission ratio to determine the IC50 using XLFit 5.0 (IDBS, Guildford) to fit to a sigmoidal dose response curve with a variable slope.
Turning to `COc1cccc2nc(Nc3cnn(C4CCOCC4)c3)c3[nH]ncc3c12` [Example 142, 9-methoxy-N-(1-(tetrahydro-2H-pyran-4-yl)-1H-pyrazol-4-yl)-3H-pyrazolo[3,4-c]quinolin-4-amine], the IC50 is less than 10 nM.

`CN1CCC(n2cc(Nc3nc4ccc(S(C)(=O)=O)cc4c4cn[nH]c34)cn2)CC1` [Example 154, N-(1-(1-methylpiperidin-4-yl)-1H-pyrazol-4-yl)-8-(methylsulfonyl)-3H-pyrazolo[3,4-c]quinolin-4-amine]: the IC50 was less than 10 nM. For the compound `CC(=O)N1CCC(n2cc(Nc3nc4ccc(S(C)(=O)=O)cc4c4cn[nH]c34)cn2)CC1` [Example 155, 1-(4-(4-((8-(methylsulfonyl)-3H-pyrazolo[3,4-c]quinolin-4-yl)amino)-1H-pyrazol-1-yl)piperidin-1-yl)ethan-1-one], the IC50 was less than 10 nM. `COCCn1cc(Nc2nc3cccc(OC)c3c3c[nH]nc23)cn1` [Example 156, 9-methoxy-N-(1-(2-methoxyethyl)-1H-pyrazol-4-yl)-2H-pyrazolo[3,4-c]quinolin-4-amine]: the IC50 was less than 10 nM. `COc1cccc2nc(Nc3cnn(C4CCN(C(C)=O)CC4)c3)c3[nH]ncc3c12` [Example 157, 1-(4-(4-((9-methoxy-3H-pyrazolo[3,4-c]quinolin-4-yl)amino)-1H-pyrazol-1-yl)piperidin-1-yl)ethan-1-one]: the IC50 is less than 10 nM.

Regarding `CS(=O)(=O)c1ccc2c(c1)nc(Nc1cnn(C3CCOCC3)c1)c1[nH]ncc12` [Example 160, 7-(methylsulfonyl)-N-(1-(tetrahydro-2H-pyran-4-yl)-1H-pyrazol-4-yl)-3H-pyrazolo[3,4-c]quinolin-4-amine], the IC50 is less than 10 nM. The value for `COc1ccc2nc(Nc3cnn(C(C)(C)C(N)=O)c3)c3n[nH]cc3c2c1` [Example 164, 2-(4-((8-methoxy-2H-pyrazolo[3,4-c]quinolin-4-yl)amino)-1H-pyrazol-1-yl)-2-methylpropanamide] was 100 to 1000 nM; that for `CS(=O)(=O)c1ccc2c(c1)nc(Nc1cnn(C3CCOCC3)c1)c1[nH]ncc12` [Example 169, 7-(methylsulfonyl)-N-(1-(tetrahydro-2H-pyran-4-yl)-1H-pyrazol-4-yl)-3H-pyrazolo[3,4-c]quinolin-4-amine] was 10 to 100 nM.

As for `CS(=O)(=O)c1ccc2c(c1)nc(Nc1ccc(C(=O)N3CCOCC3)c(F)c1)c1[nH]ncc12` [Example 174, (2-fluoro-4-((7-(methylsulfonyl)-3H-pyrazolo[3,4-c]quinolin-4-yl)amino)phenyl)(morpholino)methanone], the IC50 was in the range of 100 to 1000 nM.

For the compound `COc1cccc2nc(Nc3cnn(C(C)(C)C)c3)c3[nH]ncc3c12` [Example 181, N-(1-(tert-butyl)-1H-pyrazol-4-yl)-9-methoxy-3H-pyrazolo[3,4-c]quinolin-4-amine], the IC50 was less than 10 nM. The figure for `COc1cccc2nc(Nc3cnn(C4(C#N)CCCCC4)c3)c3[nH]ncc3c12` [Example 185, 1-(4-((9-methoxy-3H-pyrazolo[3,4-c]quinolin-4-yl)amino)-1H-pyrazol-1-yl)cyclohexanecarbonitrile] is less than 10 nM. Turning to `COc1cc(C(=O)N2CCOCC2)ccc1Nc1nc2cc(S(C)(=O)=O)ccc2c2cn[nH]c12` [Example 194, (3-methoxy-4-((7-(methylsulfonyl)-3H-pyrazolo[3,4-c]quinolin-4-yl)amino)phenyl)(morpholino)methanone], the IC50 was 100 to 1000 nM. The value for `COc1cc(C(=O)N2CCOCC2)ccc1Nc1nc2cccc(OC)c2c2cn[nH]c12` [Example 200, (3-methoxy-4-((9-methoxy-3H-pyrazolo[3,4-c]quinolin-4-yl)amino)phenyl)(morpholino)methanone] was 10 to 100 nM. The figure for `Cn1cccc(Nc2nc3ccc(S(C)(=O)=O)cc3c3cn[nH]c23)c1=O` [Example 202, 1-methyl-3-((8-(methylsulfonyl)-3H-pyrazolo[3,4-c]quinolin-4-yl)amino)pyridin-2(1H)-one] is 100 to 1000 nM; for `COCCn1cc(Nc2nc3cccc(OC)c3c3cn[nH]c23)c(C)n1` [Example 205, 9-methoxy-N-(1-(2-methoxyethyl)-3-methyl-1H-pyrazol-4-yl)-3H-pyrazolo[3,4-c]quinolin-4-amine] it is 10 to 100 nM. Regarding `COc1cccc2nc(Nc3cn(C4CCOCC4)nc3C)c3[nH]ncc3c12` [Example 207, 9-methoxy-N-(3-methyl-1-(tetrahydro-2H-pyran-4-yl)-1H-pyrazol-4-yl)-3H-pyrazolo[3,4-c]quinolin-4-amine], the IC50 lay in the range of 10 to 100 nM. As to `COCCn1cc(Nc2nc3ccc(S(C)(=O)=O)cc3c3cn[nH]c23)c(C)n1` [Example 209, N-(1-(2-methoxyethyl)-3-methyl-1H-pyrazol-4-yl)-8-(methylsulfonyl)-3H-pyrazolo[3,4-c]quinolin-4-amine], the IC50 fell in the range of 10 to 100 nM.

For the compound `COCCn1ncc(Nc2nc3ccc(S(C)(=O)=O)cc3c3cn[nH]c23)c1C` [Example 210, N-(1-(2-methoxyethyl)-5-methyl-1H-pyrazol-4-yl)-8-(methylsulfonyl)-3H-pyrazolo[3,4-c]quinolin-4-amine], the IC50 is 10 to 100 nM. Regarding `Cc1nn(C(C)C)cc1Nc1nc2ccc(S(C)(=O)=O)cc2c2cn[nH]c12` [Example 213, N-(1-isopropyl-3-methyl-1H-pyrazol-4-yl)-8-(methylsulfonyl)-3H-pyrazolo[3,4-c]quinolin-4-amine], the IC50 was less than 10 nM.

Consider `Cc1c(Nc2nc3ccc(S(C)(=O)=O)cc3c3cn[nH]c23)cnn1C(C)C` [Example 214, N-(1-isopropyl-5-methyl-1H-pyrazol-4-yl)-8-(methylsulfonyl)-3H-pyrazolo[3,4-c]quinolin-4-amine], for which the IC50 was less than 10 nM. The figure for `Cc1nn(C2CCOCC2)cc1Nc1nc2ccc(S(C)(=O)=O)cc2c2cn[nH]c12` [Example 216, N-(3-methyl-1-(tetrahydro-2H-pyran-4-yl)-1H-pyrazol-4-yl)-8-(methylsulfonyl)-3H-pyrazolo[3,4-c]quinolin-4-amine] is 10 to 100 nM. Regarding `Cc1nn(C(C)C)cc1Nc1nc2ccc(S(C)(=O)=O)cc2c2cn[nH]c12` [Example 217, N-(1-isopropyl-3-methyl-1H-pyrazol-4-yl)-8-(methylsulfonyl)-3H-pyrazolo[3,4-c]quinolin-4-amine], the IC50 was 10 to 100 nM. Consider `COc1cccc2nc(Nc3cnn(C(C)C)c3C)c3[nH]ncc3c12` [Example 219, N-(1-isopropyl-5-methyl-1H-pyrazol-4-yl)-9-methoxy-3H-pyrazolo[3,4-c]quinolin-4-amine], for which the IC50 was less than 10 nM. The value for `COc1cccc2nc(Nc3cn(C(C)C)nc3C)c3[nH]ncc3c12` [Example 220, N-(1-isopropyl-3-methyl-1H-pyrazol-4-yl)-9-methoxy-3H-pyrazolo[3,4-c]quinolin-4-amine] was less than 10 nM; that for `COc1cccc2nc(Nc3cn(C(C)C)nc3C)c3[nH]ncc3c12` [Example 222, N-(1-isopropyl-3-methyl-1H-pyrazol-4-yl)-9-methoxy-3H-pyrazolo[3,4-c]quinolin-4-amine] was 10 to 100 nM; that for `COc1nn(C2CCN(C(C)(C)C)CC2)cc1Nc1nc2cccc(OC)c2c2cn[nH]c12` [Example 225, N-(1-(1-(tert-butyl)piperidin-4-yl)-3-methoxy-1H-pyrazol-4-yl)-9-methoxy-3H-pyrazolo[3,4-c]quinolin-4-amine] was 10 to 100 nM. As for `CS(=O)(=O)c1ccc2nc(Nc3cc(S(C)(=O)=O)sc3Cl)c3[nH]ncc3c2c1` [Example 230, N-(2-chloro-5-(methylsulfonyl)thiophen-3-yl)-8-(methylsulfonyl)-3H-pyrazolo[3,4-c]quinolin-4-amine], the IC50 was 10 to 100 nM. The figure for `COc1cccc2nc(Nc3c(C)nn(C(C)C)c3C)c3[nH]ncc3c12` [Example 234, N-(1-isopropyl-3,5-dimethyl-1H-pyrazol-4-yl)-9-methoxy-3H-pyrazolo[3,4-c]quinolin-4-amine] is 100 to 1000 nM; for `COCCCn1ncc(Nc2nc3cccc(OC)c3c3cn[nH]c23)c1Cl` [Example 235, N-(5-chloro-1-(3-methoxypropyl)-1H-pyrazol-4-yl)-9-methoxy-3H-pyrazolo[3,4-c]quinolin-4-amine] it is 10 to 100 nM. `COCCCn1ncc(Nc2nc3ccc(S(C)(=O)=O)cc3c3cn[nH]c23)c1Cl` [Example 237, N-(5-chloro-1-(3-methoxypropyl)-1H-pyrazol-4-yl)-8-(methylsulfonyl)-3H-pyrazolo[3,4-c]quinolin-4-amine]: the IC50 fell in the range of 10 to 100 nM. In the case of `Cn1nc(C2CC2)cc1Nc1nc2ccc(S(C)(=O)=O)cc2c2cn[nH]c12` [Example 239, N-(3-cyclopropyl-1-methyl-1H-pyrazol-5-yl)-8-(methylsulfonyl)-3H-pyrazolo[3,4-c]quinolin-4-amine], the IC50 is 100 to 1000 nM.
